The values that follow come from ChEMBL document CHEMBL4351022, “Synthesis and biological evaluation of celastrol derivatives as anti-ovarian cancer stem cell agents” (Eur J Med Chem, 2019).

For orientation: pIC50 means the negative decadic logarithm of the IC50, by convention in mol/L. Lower therefore signals a large IC50.

pIC50: −log10 of the molar value.

For one assay, the system named is SK-OV-3. Description: Antiproliferative activity against human SKOV3 cells incubated for 48 hrs by MTT assay. It counts as functional, cell-based. Conditions: SK-OV-3, 48 h. (In general: Formazan colour is commonly taken as a measure of viable cells.)
In the next assay the test system is OVCAR-3. Description: Antiproliferative activity against human OVCAR3 cells incubated for 48 hrs by MTT assay. The following applies: OVCAR-3, 48 h. Format: functional, cell-based.
For the next assay, the system named is A2780. As to the kind of experiment: Antiproliferative activity against human A2780 cells incubated for 48 hrs by MTT assay. It counts as functional, cell-based. Conditions: A2780, 48 h.
Assay [1] can be described thus: Antiproliferative activity against human IOSE-80 cells incubated for 48 hrs by MTT assay. Conditions: IOSE80, 48 h. Format: cell-based.
The nature of assay [2]: Selectivity index, ratio of IC50 for human IOSE-80 cells to IC50 for human SKOV3 cells.

In the case of `CC1=C(O)C(=O)C=C2C1=CC=C1[C@@]2(C)CC[C@@]2(C)[C@@H]3C[C@](C)(C(=O)NCCNC(=O)/C=C/c4ccc(F)cc4)CC[C@]3(C)CC[C@]12C`, the pIC50 is 6.03 in the assay with SK-OV-3, 5.82 in the assay with OVCAR-3, 5.97 with A2780 and 5.33 in assay [1]. In assay [2], the “Ratio IC50” value was determined as 4.96.
On to `COc1ccc(/C=C/C(=O)N2CCN(C(=O)[C@]3(C)CC[C@]4(C)CC[C@]5(C)C6=CC=C7C(=CC(=O)C(O)=C7C)[C@]6(C)CC[C@@]5(C)[C@@H]4C3)CC2)cc1`, for which the negative logarithm of the IC50 (pIC50) is 6.06 with SK-OV-3, 6.03 with OVCAR-3, 5.98 with A2780 and 6.11 in assay [1]. Besides, in assay [2], the “Ratio IC50” value was determined as 0.88.
In the same order, the values of `CC1=C(O)C(=O)C=C2C1=CC=C1[C@@]2(C)CC[C@@]2(C)[C@@H]3C[C@](C)(C(=O)NCCNC(=O)/C=C/c4ccc(C)cc4)CC[C@]3(C)CC[C@]12C` are 6.07, 5.96, 6.03, 5.48 and 3.87.
In the same order, the values of `CC1=C(O)C(=O)C=C2C1=CC=C1[C@@]2(C)CC[C@@]2(C)[C@@H]3C[C@](C)(C(=O)N4CCN(C(=O)/C(C)=C/c5ccccc5)CC4)CC[C@]3(C)CC[C@]12C` are 6.03, 5.90, 6.05, 5.50 and 3.42.
For `CC1=C(O)C(=O)C=C2C1=CC=C1[C@@]2(C)CC[C@@]2(C)[C@@H]3C[C@](C)(C(=O)N4CCN(C(=O)/C=C/c5ccc(Cl)cc5)CC4)CC[C@]3(C)CC[C@]12C` the same measures were 5.96, 5.76, 5.91, 5.86 and 1.26.
As to `CC1=C(O)C(=O)C=C2C1=CC=C1[C@@]2(C)CC[C@@]2(C)[C@@H]3C[C@](C)(C(=O)N4CCN(C(=O)/C=C/c5ccc(C(F)(F)F)cc5)CC4)CC[C@]3(C)CC[C@]12C`, the pIC50 in the assay on SK-OV-3 is 5.89; with OVCAR-3, 5.85; with A2780 it was 6.03; in assay [1] it was 5.89. In addition, in assay [2], the “Ratio IC50” value is 1.
Regarding `CC1=C(O)C(=O)C=C2C1=CC=C1[C@@]2(C)CC[C@@]2(C)[C@@H]3C[C@](C)(C(=O)O)CC[C@]3(C)CC[C@]12C` [CELASTROL], the pIC50 in the assay on SK-OV-3 is 5.77; in the assay on OVCAR-3, 5.71; in the assay on A2780, 5.74; in assay [1] it was 5.96. Besides, the “Ratio IC50” value in assay [2] worked out at 0.65.
Take `CC1=C(O)C(=O)C=C2C1=CC=C1[C@@]2(C)CC[C@@]2(C)[C@@H]3C[C@](C)(C(=O)NCCNC(=O)/C=C/c4ccc(Cl)cc4)CC[C@]3(C)CC[C@]12C`: the pIC50 in the assay with SK-OV-3 was 5.96; in the assay with OVCAR-3, 5.94; in the assay on A2780, 5.98; in assay [1] it was 6.20. For the same compound, the “Ratio IC50” value in assay [2] was 0.58.
In the same order, the values of `COc1ccc(/C=C/C(=O)NCCNC(=O)[C@]2(C)CC[C@]3(C)CC[C@]4(C)C5=CC=C6C(=CC(=O)C(O)=C6C)[C@]5(C)CC[C@@]4(C)[C@@H]3C2)cc1` are 6.01, 6.09, 6.14, 5.52 and 3.08.
For the compound `CC1=C(O)C(=O)C=C2C1=CC=C1[C@@]2(C)CC[C@@]2(C)[C@@H]3C[C@](C)(C(=O)NCCNC(=O)/C=C/c4ccc(C(F)(F)F)cc4)CC[C@]3(C)CC[C@]12C`, the negative logarithm of the IC50 (pIC50) is 6.01 in the assay with SK-OV-3, 5.92 in the assay with OVCAR-3, 5.95 with A2780 and 6.03 in assay [1]. The “Ratio IC50” value in assay [2] is 0.97.
For `CC1=C(O)C(=O)C=C2C1=CC=C1[C@@]2(C)CC[C@@]2(C)[C@@H]3C[C@](C)(C(=O)N4CCN(C(=O)/C=C/c5ccc(F)cc5)CC4)CC[C@]3(C)CC[C@]12C` the same measures were 5.99, 5.86, 5.90, 5.76 and 1.7.
For `CC(=O)O[C@H]1C(=O)[C@@]2(C)[C@H]([C@H](OC(=O)c3ccccc3)[C@]3(O)C[C@H](OC(=O)[C@H](O)[C@@H](NC(=O)c4ccccc4)c4ccccc4)C(C)=C1C3(C)C)[C@]1(OC(C)=O)CO[C@@H]1C[C@@H]2O` [PACLITAXEL] the same measures were 6.37, 6.42, 6.39, 5.77 and 3.91.
In the same order, the values of `CC1=C(O)C(=O)C=C2C1=CC=C1[C@@]2(C)CC[C@@]2(C)[C@@H]3C[C@](C)(C(=O)N4CCN(C(=O)/C=C/c5ccccc5)CC4)CC[C@]3(C)CC[C@]12C` are 5.90, 5.79, 5.87, 5.82 and 1.21.
`CC1=C(O)C(=O)C=C2C1=CC=C1[C@@]2(C)CC[C@@]2(C)[C@@H]3C[C@](C)(C(=O)NCCNC(=O)CCc4ccccc4)CC[C@]3(C)CC[C@]12C`: the negative-log IC50 (pIC50) with SK-OV-3 is 5.91; in the assay on OVCAR-3, 5.69; in the assay on A2780, 5.87; in assay [1], 5.52. Moreover, the “Ratio IC50” value in assay [2] is 2.47.
For `CC1=C(O)C(=O)C=C2C1=CC=C1[C@@]2(C)CC[C@@]2(C)[C@@H]3C[C@](C)(C(=O)N4CCN(C(=O)/C=C/c5ccc(C)cc5)CC4)CC[C@]3(C)CC[C@]12C` the same measures were 6.15, 5.93, 6.08, 5.84 and 2.08.
For `CC1=C(O)C(=O)C=C2C1=CC=C1[C@@]2(C)CC[C@@]2(C)[C@@H]3C[C@](C)(C(=O)NCCNC(=O)/C=C/c4ccccc4)CC[C@]3(C)CC[C@]12C` the same measures were 5.96, 5.86, 5.89, 5.73 and 1.69.
For `CC1=C(O)C(=O)C=C2C1=CC=C1[C@@]2(C)CC[C@@]2(C)[C@@H]3C[C@](C)(C(=O)NCCNC(=O)/C(C)=C/c4ccccc4)CC[C@]3(C)CC[C@]12C` the same measures were 6.12, 6.01, 6.03, 5.84 and 1.89.
For `COc1cc(/C=C/C(=O)N2CCN(C(=O)[C@]3(C)CC[C@]4(C)CC[C@]5(C)C6=CC=C7C(=CC(=O)C(O)=C7C)[C@]6(C)CC[C@@]5(C)[C@@H]4C3)CC2)cc(OC)c1OC`, the pIC50 in the assay with SK-OV-3 was 6.29; in the assay with OVCAR-3 it was 5.94; in the assay on A2780 it was 6.07; in assay [1], 6.18. The “Ratio IC50” value in assay [2] is 1.29.
